Assay results taken from patent US20210337791A1, “Methods For Killing Insects Such As Drosophila species” (The United States of America, as represented by the …, priority 2020, published 2021).

Columns and labels:
[1] = tested on: fire ant; experiment: Feeding of biogenic amines to fire ants (worker and queen mortality); assay type: in vivo; conditions: for fire ant worker mortality versus sucrose controls: biogenic amines all formulated at 1.0%
[2] = tested on: Drosophila suzukii; experiment: Feeding test of D. suzukii adults with tyramine or M-tyramine sucrose solutions (fly mortality); assay type: in vivo; conditions: 7 days; for fly mortality, first and second experiments: 1% solution in 0.5 M sucrose; for mortality: 4% compound in 0.5 M sucrose
Method: Flies and sugars: Drosophila suzukii used in these experiments were from a colony maintained at 22±5° C. under a photoperiod of L:D 16:8 h and a relative humidity of 60±5% RH at the Horticultural Crops Research Unit, USDA ARS in Corvallis, Oreg. Wildtype flies collected from infested fruits in Corvallis, Oreg., were used to start the colony. Standard rearing methods and diet are described by Woltz et al. (Journal of Applied Entomology, 139: 759-770 (2015)). Newly emerged adult males and females were collected daily and maintained in cages with water and diet until they were specific ages for experimentation.
The chemical components were tyramine (98%, Sigma-Aldrich), N-methyl-tyramine (shortened name=M-tyramine), 95%, Combi-Blocks, Inc.), and sucrose (>99%, Fisher Scientific, Hampton, N.H.).
The effect of tyramine and M-tyramine formulations on fly mortality-I: Ten 5-day old flies (5 males and 5 females) were introduced into a plastic vial and given a tube (1.5 ml) containing different water-based solutions (FIG. 1). For the first experiment various pairs were tested (FIG. 2A): (a) Sucrose 0.5 M only; (b) Tyramine 0.1%+Sucrose 0.5 M (0.1% Tyramine); (c) Tyramine 1%+Sucrose 0.5 M (1% Tyramine); (d) M-Tyramine 0.1%+Sucrose 0.5 M (0.1% M-Tyramine); and (e) M-Tyramine 1%+Sucrose 0.5 M (1% M-Tyramine).
The effect of tyramine and M-tyramine formulations on fly mortality-II: The second experiment consisted of the following (FIG. 2B): (a) Sucrose 0.5 M only; (b) Tyramine 1%+Sucrose 0.5 M (1% Tyramine); (c) Tyramine 2%+Sucrose 0.5 M (2% Tyramine); (d) M-Tyramine 1%+Sucrose 0.5 M (1% M-Tyramine), and (e) M-Tyramine 2%+Sucrose 0.5 M (2% M-Tyramine).
The effect of tyramine and M-tyramine formulations on fly mortality-III: The third experiment consisted of the following (FIG. 2C): (a) Sucrose 0.5 M only; (b) Tyramine 2%+Sucrose 0.5 M (2% Tyramine); (c) Tyramine 4%+Sucrose 0.5 M (4% Tyramine); (d) M-Tyramine 2%+Sucrose 0.5 M (2% M-Tyramine); and (e) M-Tyramine 4%+Sucrose 0.5 M (4% M-Tyramine). Survivorship of flies was checked daily for 7 days. Each pair per experiment was replicated at least eight times.

[3] = tested on: tawny crazy ant workers; experiment: Pest ant specificity of tyramine using tawny crazy ant workers; assay type: in vivo
[4] = Aqueous solubility; assay type: physicochemical
From the text: By the term “effective amount” of a compound or property as provided herein is meant such amount as is capable of performing the function of the compound or property for which an effective amount is expressed. As will be pointed out below, the exact amount required will vary from process to process, depending on recognized variables such as the compounds employed and the processing conditions observed. Thus, it is not possible to specify an exact “effective amount.” However, an appropriate effective amount may be determined by one of ordinary skill in the art using only routine experimentation. Generally the concentration of the compounds will be, but not limited to, at least about 0.1% (e.g., at least 0.1%; for example in an aqueous solution), at least about 1% (e.g., at least 1%), preferably at least about 2% (e.g., at least 2%), preferably at least about 3% (e.g., at least 3%), preferably at least about 4% (e.g., at least 4%). […] However, higher concentrations than the limits shown could be obtained using solubilizing agents (e.g., DMSO of DMF) or chelating agents; for example, at least about 5% (e.g., at least 5%), preferably at least about 6% (e.g., at least 6%), preferably at least about 7% (e.g., at least 7%), preferably at least about 8% (e.g., at least 8%), preferably at least about 9% (e.g., at least 9%), and preferably at least about 10% (e.g., at least 10%). Concentrations lower than about 2% would require longer duration of exposure, such as the composition in a bait station to which the target insects have long term access to, thus increasing the total dose.

| SMILES | fire ant worker mortality versus sucrose controls [1] | fly mortality, first and second experiments [2] | mortality [2] [%] | aqueous solubility (upper limit) ([4]; free base) | aqueous solubility (upper limit) ([4]; salt form) | also measured |
| --- | --- | --- | --- | --- | --- | --- |
| NCCc1c[nH]c2ccc(O)cc12 [serotonin] | no different than the sucrose controls | – | – | – | – | – |
| NCCc1ccc(O)cc1 [tyramine] | significant fire ant worker mortality | not statistically consistent | 100 | about 1% | about 5% | fly mortality versus 0.5 M sucrose negative control ([2]; 0.1% solution in 0.5 M sucrose): not significantly different; mortality in small lab colonies ([1]; tyramine fed to small lab fire ant colonies): worker and queen fire ant mortality; fire ant worker mortality ([1]; workers fed 1.0, 0.1, and 0.01% wt(g)/vol(L)): significant mortality; mortality of tawny crazy ant workers versus controls [3]: did not result in mortality greater than the controls |
| NCCc1c[nH]cn1 [histamine] | no different than the sucrose controls | – | – | – | – | – |
| NCC(O)c1ccc(O)cc1 (centres unmarked) [octopamine] | no different than the sucrose controls | – | – | – | – | – |
| CNCCc1ccc(O)cc1 [M-tyramine, N-methyl-tyramine] | – | not statistically consistent | 100 | ~3.4% | about 10% | – |
| NCCc1ccc(O)c(O)c1 [dopamine] | no different than the sucrose controls | – | – | – | – | – |
